Reference: PMC5218480 (PLoS ONE, 2017)

System: MV-4-11 cells
Assay: Gene expression microarray analysis (Affymetrix PrimeView) and GSEA
Type: cell-based, human
Set-up: RFU PODN (11730768_x_at) / Fold change /veh PODN (11730768_x_at) / RFU LINC00158 (11744669_a_at) / Fold change /veh LINC00158 (11744669_a_at) / RFU DUSP10 (11751237_a_at) / Fold change /veh DUSP10 (11751237_a_at) / RFU ID3 (11757404_x_at) / Fold change /veh ID3 (11757404_x_at) / RFU PLEKHG5 (11737974_s_at) / Fold change /veh PLEKHG5 (11737974_s_at) / RFU LRRC4B (11730491_at) / Fold change /veh LRRC4B (11730491_at) / RFU GIMAP4 (11747438_a_at) / Fold change /veh GIMAP4 (11747438_a_at) / RFU KRT8 (11758183_x_at) / Fold change /veh KRT8 (11758183_x_at) / RFU CNN1 (11734310_a_at) / Fold change /veh CNN1 (11734310_a_at) / RFU VPS37D (11726825_at) / Fold change /veh VPS37D (11726825_at) / RFU C10orf10 (11716522_x_at) / Fold change /veh C10orf10 (11716522_x_at) / RFU KIR2DL2 /// KIR2DL4 /// KIR2DL5A /// KIR2DL5B /// KIR2DS1 /// KIR2DS2 /// KIR2DS3 /// KIR2DS4 /// KIR3DL3 /// KIR3DL3 /// KIR3DS1 (11738374_at) / Fold change /veh KIR2DL2 /// KIR2DL4 /// KIR2DL5A /// KIR2DL5B /// KIR2DS1 /// KIR2DS2 /// KIR2DS3 /// KIR2DS4 /// KIR3DL3 /// KIR3DL3 /// KIR3DS1 (11738374_at) / RFU C1QL1 (11718748_at) / Fold change /veh C1QL1 (11718748_at) / RFU TMPRSS4 (11747572_a_at) / Fold change /veh TMPRSS4 (11747572_a_at) / RFU HAMP (11756126_x_at) / Fold change /veh HAMP (11756126_x_at) / RFU RNFT2 (11725882_a_at) / Fold change /veh RNFT2 (11725882_a_at) / RFU NR4A2 (11747474_a_at) / Fold change /veh NR4A2 (11747474_a_at) / RFU ABCC12 (11746883_a_at) / Fold change /veh ABCC12 (11746883_a_at) / RFU TMEM136 (11760407_x_at) / Fold change /veh TMEM136 (11760407_x_at) / RFU CLDN22 /// WWC2 (11732394_at) / Fold change /veh CLDN22 /// WWC2 (11732394_at) / RFU HLA-DPB1 (11760878_x_at) / Fold change /veh HLA-DPB1 (11760878_x_at) / RFU SPINT1 (11716480_a_at) / Fold change /veh SPINT1 (11716480_a_at) / RFU GAP43 (11754022_s_at) / Fold change /veh GAP43 (11754022_s_at) / RFU A4GNT (11735810_at) / Fold change /veh A4GNT (11735810_at) / RFU PRB3 (11715151_x_at) / Fold change /veh PRB3 (11715151_x_at) / RFU TUBB4B (11761932_at) / Fold change /veh TUBB4B (11761932_at) / RFU CAPN14 (11732068_a_at) / Fold change /veh CAPN14 (11732068_a_at) / RFU TMCC2 (11721928_a_at) / Fold change /veh TMCC2 (11721928_a_at) / RFU IRGQ (11745062_a_at) / Fold change /veh IRGQ (11745062_a_at) / RFU FAM174B (11720279_a_at) / Fold change /veh FAM174B (11720279_a_at) / RFU TMPRSS4 (11748680_a_at) / Fold change /veh TMPRSS4 (11748680_a_at) / RFU FAM212B (11763350_a_at) / Fold change /veh FAM212B (11763350_a_at) / RFU PLEKHG5 (11743358_a_at) / Fold change /veh PLEKHG5 (11743358_a_at) / RFU ZSCAN30 (11745921_a_at) / Fold change /veh ZSCAN30 (11745921_a_at) / RFU CMKLR1 (11741424_a_at) / Fold change /veh CMKLR1 (11741424_a_at) / RFU LOC101060620 /// MAPK8IP1 (11723275_at) / Fold change /veh LOC101060620 /// MAPK8IP1 (11723275_at) / RFU SPTSSB (11747773_x_at) / Fold change /veh SPTSSB (11747773_x_at) / RFU PRSS12 (11739890_at) / Fold change /veh PRSS12 (11739890_at) / RFU BIN1 (11741810_x_at) / Fold change /veh BIN1 (11741810_x_at) / RFU WNT11 (11732464_a_at) / Fold change /veh WNT11 (11732464_a_at) / RFU C10orf10 (11716521_a_at) / Fold change /veh C10orf10 (11716521_a_at) / RFU C5orf56 (11738089_at) / Fold change /veh C5orf56 (11738089_at) / RFU CYB561 (11721691_x_at) / Fold change /veh CYB561 (11721691_x_at) / RFU ANKRD19P (11752326_a_at) / Fold change /veh ANKRD19P (11752326_a_at) / RFU OR2T12 /// OR2T33 /// OR2T8 (11738714_s_at) / Fold change /veh OR2T12 /// OR2T33 /// OR2T8 (11738714_s_at) / RFU VCAN (11748164_a_at) / Fold change /veh VCAN (11748164_a_at) / RFU JSRP1 (11732532_at) / Fold change /veh JSRP1 (11732532_at) / RFU KRTAP10-11 (11738290_x_at) / Fold change /veh KRTAP10-11 (11738290_x_at) / RFU MYO3A (11730013_a_at) / Fold change /veh MYO3A (11730013_a_at) / RFU EBF3 (11725865_a_at) / Fold change /veh EBF3 (11725865_a_at) / RFU CAMK2N1 (11719241_x_at) / Fold change /veh CAMK2N1 (11719241_x_at) / RFU C5orf56 (11738088_a_at) / Fold change /veh C5orf56 (11738088_a_at) / RFU OLFML3 (11715873_a_at) / Fold change /veh OLFML3 (11715873_a_at) / RFU LOC100653217 /// NTM (11731650_a_at) / Fold change /veh LOC100653217 /// NTM (11731650_a_at) / RFU MAPK11 (11762145_a_at) / Fold change /veh MAPK11 (11762145_a_at) / RFU FIZ1 (11724087_x_at) / Fold change /veh FIZ1 (11724087_x_at) / RFU OASL (11726364_x_at) / Fold change /veh OASL (11726364_x_at) / RFU SOX15 (11748057_x_at) / Fold change /veh SOX15 (11748057_x_at) / RFU CD79A (11719716_a_at) / Fold change /veh CD79A (11719716_a_at) / RFU HIST1H1D (11736915_at) / Fold change /veh HIST1H1D (11736915_at) / RFU CASKIN2 (11723855_a_at) / Fold change /veh CASKIN2 (11723855_a_at) / RFU LOC730098 (11760151_x_at) / Fold change /veh LOC730098 (11760151_x_at) / RFU OR4N2 (11742367_at) / Fold change /veh OR4N2 (11742367_at) / RFU PRRT2 (11749266_a_at) / Fold change /veh PRRT2 (11749266_a_at) / RFU SNX32 (11753110_a_at) / Fold change /veh SNX32 (11753110_a_at) / RFU CDHR5 (11726645_a_at) / Fold change /veh CDHR5 (11726645_a_at) / RFU RCAN1 (11760418_a_at) / Fold change /veh RCAN1 (11760418_a_at) / RFU FAM167A (11723789_a_at) / Fold change /veh FAM167A (11723789_a_at) / RFU FAM26E (11764081_at) / Fold change /veh FAM26E (11764081_at) / RFU ISYNA1 (11749810_s_at) / Fold change /veh ISYNA1 (11749810_s_at) / RFU ACY1 (11761880_at) / Fold change /veh ACY1 (11761880_at) / RFU 11764098_at / Fold change /veh 11764098_at / RFU SAMD14 (11745864_x_at) / Fold change /veh SAMD14 (11745864_x_at) / RFU NPB (11741838_a_at) / Fold change /veh NPB (11741838_a_at) / RFU TMPRSS6 (11731388_a_at) / Fold change /veh TMPRSS6 (11731388_a_at) / RFU KRTAP10-2 (11738614_at) / Fold change /veh KRTAP10-2 (11738614_at) / RFU ARHGAP8 /// PRR5-ARHGAP8 (11727945_x_at) / Fold change /veh ARHGAP8 /// PRR5-ARHGAP8 (11727945_x_at) / RFU KRTAP5-7 /// NADSYN1 (11734609_at) / Fold change /veh KRTAP5-7 /// NADSYN1 (11734609_at) / RFU RASL12 (11751679_a_at) / Fold change /veh RASL12 (11751679_a_at) / RFU CDKN2B (11736163_a_at) / Fold change /veh CDKN2B (11736163_a_at) / RFU PRF1 (11729649_at) / Fold change /veh PRF1 (11729649_at) / RFU, ZNF638 /// ZNF638-IT1 / Fold change vs veh, ZNF638 /// ZNF638-IT1 / RFU, PANK3 / Fold change vs veh, PANK3 / RFU, SH3YL1 / Fold change vs veh, SH3YL1 / RFU, ZEB2 / Fold change vs veh, ZEB2 / RFU, NRIP1 / Fold change vs veh, NRIP1 / RFU, PTTG1IP / Fold change vs veh, PTTG1IP / RFU, CAPN2 / Fold change vs veh, CAPN2 / RFU, MED14 / Fold change vs veh, MED14 / RFU, SNORA58 / Fold change vs veh, SNORA58 / RFU, C1orf63 / Fold change vs veh, C1orf63 / RFU, LRRFIP1 / Fold change vs veh, LRRFIP1 / RFU, NDUFAF7 / Fold change vs veh, NDUFAF7 / RFU, SLC12A2 / Fold change vs veh, SLC12A2 / RFU, IBTK / Fold change vs veh, IBTK / RFU, ESF1 / Fold change vs veh, ESF1 / Fold change vs veh, TMEM50B / RFU, TAOK1 / Fold change vs veh, TAOK1 / RFU, ACBD3 / Fold change vs veh, ACBD3 / RFU, TMA16 / Fold change vs veh, TMA16 / RFU, RWDD3 / Fold change vs veh, RWDD3 / RFU, BCAT1 / Fold change vs veh, BCAT1 / RFU, EDEM3 / Fold change vs veh, EDEM3 / RFU, TMEM33 / Fold change vs veh, TMEM33 / RFU, WDR75 / Fold change vs veh, WDR75 / RFU, AHCTF1 / Fold change vs veh, AHCTF1 / RFU, TFRC / Fold change vs veh, TFRC / RFU, ZDHHC17 / Fold change vs veh, ZDHHC17 / RFU, NOM1 / Fold change vs veh, NOM1 / RFU, ARL8B / Fold change vs veh, ARL8B / RFU, ZBTB11 / Fold change vs veh, ZBTB11 / RFU, TAMM41 / Fold change vs veh, TAMM41 / RFU, KIAA1704 /// LOC100996395 / Fold change vs veh, KIAA1704 /// LOC100996395 / RFU, ING1 / Fold change vs veh, ING1 / RFU, TRMT61B / Fold change vs veh, TRMT61B / RFU, FUBP3 / Fold change vs veh, FUBP3 / RFU, TP53 / Fold change vs veh, TP53 / RFU, TNKS2 / Fold change vs veh, TNKS2 / RFU, ZFP14 / Fold change vs veh, ZFP14 / RFU, ACTR2 / Fold change vs veh, ACTR2 / RFU, PPP3R1 / Fold change vs veh, PPP3R1 / RFU, PIK3R1 / Fold change vs veh, PIK3R1 / RFU, HNRNPA1 / Fold change vs veh, HNRNPA1 / RFU, RNF170 / Fold change vs veh, RNF170 / RFU, ZNF28 / Fold change vs veh, ZNF28 / RFU, RNGTT / Fold change vs veh, RNGTT / RFU, OGT / Fold change vs veh, OGT / RFU, BRD1 / Fold change vs veh, BRD1 / RFU, MARS / Fold change vs veh, MARS / RFU, ZNF655 / Fold change vs veh, ZNF655 / RFU, FAHD1 / Fold change vs veh, FAHD1 / RFU, BDP1 / Fold change vs veh, BDP1 / RFU, LRRCC1 / Fold change vs veh, LRRCC1 / RFU, ARID1A / Fold change vs veh, ARID1A / RFU, ZNF146 / Fold change vs veh, ZNF146 / RFU, ZNF330 / Fold change vs veh, ZNF330 / RFU, GPN3 / Fold change vs veh, GPN3 / RFU, C9orf123 / Fold change vs veh, C9orf123 / RFU, N4BP2L2 / Fold change vs veh, N4BP2L2 / RFU, ARFIP1 / Fold change vs veh, ARFIP1 / RFU, FAM179B / Fold change vs veh, FAM179B / RFU, BCL10 / Fold change vs veh, BCL10 / RFU, UHRF1BP1L / Fold change vs veh, UHRF1BP1L / RFU, BET1 / Fold change vs veh, BET1 / RFU, CNOT2 / Fold change vs veh, CNOT2 / RFU, ZNF268 / Fold change vs veh, ZNF268 / Fold change vs veh, ZNF507 / RFU, DGCR2 / Fold change vs veh, DGCR2 / RFU, WDSUB1 / Fold change vs veh, WDSUB1 / Fold change vs veh, HSP90B1 /// MIR3652 / RFU, ADSS / Fold change vs veh, ADSS / RFU, GK / Fold change vs veh, GK / RFU, ZNF148 / Fold change vs veh, ZNF148 / RFU, TAF9 / Fold change vs veh, TAF9 / RFU, SLC1A5 / Fold change vs veh, SLC1A5 / RFU, SLMO2 / Fold change vs veh, SLMO2 / RFU, ABCC4 / Fold change vs veh, ABCC4 / RFU, LOC101060439 /// RAP1B / Fold change vs veh, LOC101060439 /// RAP1B / RFU, RFX7 / Fold change vs veh, RFX7 / RFU, GTPBP10 / Fold change vs veh, GTPBP10 / RFU, CNEP1R1 / Fold change vs veh, CNEP1R1 / RFU, BIVM-ERCC5 /// ERCC5 / Fold change vs veh, BIVM-ERCC5 /// ERCC5 / RFU, ILF3 / Fold change vs veh, ILF3 / RFU 11762660_at / Fold change /veh 11762660_at / RFU VCAN (11757783_s_at) / Fold change /veh VCAN (11757783_s_at) / RFU DDX43 (11728927_at) / Fold change /veh DDX43 (11728927_at) / RFU KRT8 (11758188_x_at) / Fold change /veh KRT8 (11758188_x_at) / RFU NKD1 (11759106_at) / Fold change /veh NKD1 (11759106_at) / RFU SRD5A1 (11742802_a_at) / Fold change /veh SRD5A1 (11742802_a_at) / RFU TPSAB1 /// TPSB2 (11721975_s_at) / Fold change /veh TPSAB1 /// TPSB2 (11721975_s_at) / RFU GSTM3 (11746129_a_at) / Fold change /veh GSTM3 (11746129_a_at) / RFU IL23R (11737362_x_at) / Fold change /veh IL23R (11737362_x_at) / RFU TMEM51 (11727254_a_at) / Fold change /veh TMEM51 (11727254_a_at) / RFU PIWIL2 (11732686_x_at) / Fold change /veh PIWIL2 (11732686_x_at) / RFU ORM1 (11744905_x_at) / Fold change /veh ORM1 (11744905_x_at) / RFU CCDC152 (11743942_at) / Fold change /veh CCDC152 (11743942_at) / RFU ECM1 (11717891_a_at) / Fold change /veh ECM1 (11717891_a_at) / RFU IL23R (11748794_a_at) / Fold change /veh IL23R (11748794_a_at) / RFU TNFAIP8L3 (11732012_x_at) / Fold change /veh TNFAIP8L3 (11732012_x_at) / RFU MBOAT4 (11741988_at) / Fold change /veh MBOAT4 (11741988_at) / RFU 11764193_at / Fold change /veh 11764193_at / RFU TMEM53 (11763286_at) / Fold change /veh TMEM53 (11763286_at) / RFU MAGEB2 (11727129_at) / Fold change /veh MAGEB2 (11727129_at) / RFU TMEM200A (11744735_a_at) / Fold change /veh TMEM200A (11744735_a_at) / RFU CCDC152 (11751479_a_at) / Fold change /veh CCDC152 (11751479_a_at) / RFU FAM211A (11726209_a_at) / Fold change /veh FAM211A (11726209_a_at) / RFU RGS16 (11746705_a_at) / Fold change /veh RGS16 (11746705_a_at) / RFU VCAN (11755009_s_at) / Fold change /veh VCAN (11755009_s_at) / RFU RHOB (11743442_s_at) / Fold change /veh RHOB (11743442_s_at) / RFU RGS16 (11720943_a_at) / Fold change /veh RGS16 (11720943_a_at) / RFU RGS16 (11720944_at) / Fold change /veh RGS16 (11720944_at) / RFU, VPS4B / Fold change vs veh, VPS4B / RFU, CREB1 / Fold change vs veh, CREB1 / RFU, DNAJC13 / Fold change vs veh, DNAJC13 / RFU, GNAQ / Fold change vs veh, GNAQ / RFU, CDK5R1 / Fold change vs veh, CDK5R1 / RFU, ZRANB3 / Fold change vs veh, ZRANB3 / RFU, CUL4A / Fold change vs veh, CUL4A / RFU, CCNY / Fold change vs veh, CCNY / RFU, UFL1 / Fold change vs veh, UFL1 / RFU, COG3 / Fold change vs veh, COG3 / RFU, DIAPH2 / Fold change vs veh, DIAPH2 / RFU, SKA2 / Fold change vs veh, SKA2 / RFU, AFF3 / Fold change vs veh, AFF3 / RFU, LMF1 / Fold change vs veh, LMF1 / RFU, IPO11 / Fold change vs veh, IPO11 / RFU, DFFB / Fold change vs veh, DFFB / RFU, FOXP1 / Fold change vs veh, FOXP1 / RFU, CARD8 / Fold change vs veh, CARD8 / RFU, STRN3 / Fold change vs veh, STRN3 / RFU, ADK / Fold change vs veh, ADK / RFU, RASSF2 / Fold change vs veh, RASSF2 / RFU, WIPF1 / Fold change vs veh, WIPF1 / RFU, LARP1B / Fold change vs veh, LARP1B / RFU, RASA1 / Fold change vs veh, RASA1 / RFU, RB1 / Fold change vs veh, RB1 / RFU, PPFIA1 / Fold change vs veh, PPFIA1 / RFU, MAT2A / Fold change vs veh, MAT2A / RFU, CCT5 / Fold change vs veh, CCT5 / RFU, WDR92 / Fold change vs veh, WDR92 / RFU, CUX1 / Fold change vs veh, CUX1 / RFU, TTC7A / Fold change vs veh, TTC7A / RFU, TMEM135 / Fold change vs veh, TMEM135 / RFU, DEPTOR / Fold change vs veh, DEPTOR / RFU, CPM / Fold change vs veh, CPM / RFU, DNAJB6 / Fold change vs veh, DNAJB6 / RFU, CACNA2D3 / Fold change vs veh, CACNA2D3 / RFU, DTX4 / Fold change vs veh, DTX4 / RFU, TFCP2 / Fold change vs veh, TFCP2 / RFU, GMCL1 /// GMCL1P1 / Fold change vs veh, GMCL1 /// GMCL1P1 / RFU, AEBP2 / Fold change vs veh, AEBP2 / RFU, SNHG1 /// SNORD22 /// SNORD25 /// SNORD26 /// SNORD27 /// SNORD28 /// SNORD29 /// SNORD31 / Fold change vs veh, SNHG1 /// SNORD22 /// SNORD25 /// SNORD26 /// SNORD27 /// SNORD28 /// SNORD29 /// SNORD31 / Fold change (Aza/veh), C12orf56 (ProbeSet 11735607_a_at) / Fold change (ACY-1035/veh), C12orf56 (ProbeSet 11735607_a_at) / Fold change (Aza/veh), FGFR1OP (ProbeSet 11751329_s_at) / Fold change (ACY-1035/veh), FGFR1OP (ProbeSet 11751329_s_at) / Fold change (Aza/veh), VPS36 (ProbeSet 11739960_a_at) / Fold change (ACY-1035/veh), VPS36 (ProbeSet 11739960_a_at) / RFU SYPL1 (11715823_x_at) / Fold change /veh SYPL1 (11715823_x_at) / RFU IGFBP7 (11715501_s_at) / Fold change /veh IGFBP7 (11715501_s_at) / RFU REEP3 (11722064_at) / Fold change /veh REEP3 (11722064_at) / RFU IGLL1 (11728026_x_at) / Fold change /veh IGLL1 (11728026_x_at): dose or concentration left out as unconfirmed
Conditions: MV-4-11 cells, 48 hours

In the case of `Nc1ccc(-c2cccs2)cc1NC(=O)c1ccc2c(c1)cc(C1CC1)n2CCN1CCOCC1` [ACY-1035], the “RFU OR2T12 /// OR2T33 /// OR2T8 (11738714_s_at)” value is reported as 6.34 RFU.
